In patent US8765940B2 (priority 2009, dated 2014):

Target: PI3Kδ (Homo sapiens (Human), UniProt O00329)
Format: biochemical
Conditions: PI3Kδ Alphascreen assay

Sequence of PI3Kδ (O00329 whole entry): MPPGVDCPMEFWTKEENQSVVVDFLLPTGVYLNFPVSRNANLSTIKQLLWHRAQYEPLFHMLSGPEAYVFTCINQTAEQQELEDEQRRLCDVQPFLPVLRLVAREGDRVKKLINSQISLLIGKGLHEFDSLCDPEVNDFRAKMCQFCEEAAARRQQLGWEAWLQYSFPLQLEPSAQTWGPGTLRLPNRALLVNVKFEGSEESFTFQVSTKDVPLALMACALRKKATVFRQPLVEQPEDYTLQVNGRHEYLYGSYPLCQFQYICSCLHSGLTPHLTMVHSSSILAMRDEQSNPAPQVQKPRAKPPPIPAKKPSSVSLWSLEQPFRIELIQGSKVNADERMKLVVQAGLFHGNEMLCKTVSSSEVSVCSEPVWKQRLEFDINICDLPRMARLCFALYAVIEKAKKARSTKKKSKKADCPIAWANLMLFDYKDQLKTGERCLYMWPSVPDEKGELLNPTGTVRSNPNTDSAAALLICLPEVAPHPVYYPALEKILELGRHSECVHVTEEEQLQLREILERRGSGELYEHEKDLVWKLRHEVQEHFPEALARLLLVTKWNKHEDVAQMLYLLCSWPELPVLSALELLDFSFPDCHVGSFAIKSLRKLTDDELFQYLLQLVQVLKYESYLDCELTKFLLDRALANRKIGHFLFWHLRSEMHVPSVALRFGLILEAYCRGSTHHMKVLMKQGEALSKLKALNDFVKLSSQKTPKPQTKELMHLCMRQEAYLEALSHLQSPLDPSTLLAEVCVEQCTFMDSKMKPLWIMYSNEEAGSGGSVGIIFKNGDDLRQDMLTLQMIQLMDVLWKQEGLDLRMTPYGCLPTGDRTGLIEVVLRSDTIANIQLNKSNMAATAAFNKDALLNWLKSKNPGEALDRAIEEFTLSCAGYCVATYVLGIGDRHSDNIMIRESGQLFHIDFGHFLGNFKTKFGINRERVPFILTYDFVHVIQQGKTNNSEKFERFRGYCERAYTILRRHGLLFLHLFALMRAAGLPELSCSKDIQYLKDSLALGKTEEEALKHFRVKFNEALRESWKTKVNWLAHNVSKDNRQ
Sequence of PI3Kδ (P27986 whole entry partner): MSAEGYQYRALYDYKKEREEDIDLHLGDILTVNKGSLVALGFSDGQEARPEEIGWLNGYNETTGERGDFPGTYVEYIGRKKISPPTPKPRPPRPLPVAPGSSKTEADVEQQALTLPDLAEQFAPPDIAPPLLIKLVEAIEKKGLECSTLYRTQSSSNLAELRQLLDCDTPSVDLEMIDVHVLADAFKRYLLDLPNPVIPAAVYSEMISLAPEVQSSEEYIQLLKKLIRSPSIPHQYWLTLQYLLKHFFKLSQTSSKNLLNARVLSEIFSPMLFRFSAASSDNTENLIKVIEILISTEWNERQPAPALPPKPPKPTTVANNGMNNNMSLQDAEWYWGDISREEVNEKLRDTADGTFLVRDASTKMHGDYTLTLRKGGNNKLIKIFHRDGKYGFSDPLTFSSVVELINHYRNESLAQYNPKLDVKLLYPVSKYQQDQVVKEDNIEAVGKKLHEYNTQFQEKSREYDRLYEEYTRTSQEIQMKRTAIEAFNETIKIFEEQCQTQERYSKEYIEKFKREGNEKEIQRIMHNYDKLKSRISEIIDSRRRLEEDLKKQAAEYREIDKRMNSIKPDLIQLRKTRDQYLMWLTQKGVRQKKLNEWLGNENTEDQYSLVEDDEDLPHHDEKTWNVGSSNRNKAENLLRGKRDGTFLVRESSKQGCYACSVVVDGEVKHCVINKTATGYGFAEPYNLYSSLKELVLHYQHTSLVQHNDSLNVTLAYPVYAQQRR

Ki [nM]	SMILES
3	Cc1cncc(-c2nc3cc(F)cc(F)c3c(N3CC(C)(C)c4ncc(N5CCOCC5)cc43)c2C)c1 [4-(3,3-dimethyl-6-(4-morpholinyl)-2,3-dihydro-1H-pyrrolo[3,2-b]pyridin-1-yl)-5,7-difluoro-3-methyl-2-(5-methyl-3-pyridinyl)quinoline]
29	Cc1c(-c2ccccn2)nc2cc(F)ccc2c1N1CC2(CCOCC2)c2nc(N)c(N3CCOCC3)cc21 [1′-(7-fluoro-3-methyl-2-(2-pyridinyl)-4-quinolinyl)-6′-(4-morpholinyl)-1′,2,2′,3,5,6-hexahydrospiro[pyran-4,3′-pyrrolo[3,2-b]pyridin]-5′-amine]
17.1	Cc1c(Nc2ccccn2)nc2cc(F)cc(F)c2c1N1CC(C)(C)c2ncc(N3CCOCC3)cc21 [4-(3,3-dimethyl-6-morpholino-2,3-dihydro-1H-pyrrolo[3,2-b]pyridin-1-yl)-5,7-difluoro-3-methyl-N-(pyridin-2-yl)quinolin-2-amine]
3.11	Cc1c(-c2cc(F)cc(F)c2)nc2ncccc2c1N1CC(C)(C)c2ncc(N3CCOCC3)cc21 [2-(3,5-difluorophenyl)-4-(3,3-dimethyl-6-(4-morpholinyl)-2,3-dihydro-1H-pyrrolo[3,2-b]pyridin-1-yl)-3-methyl-1,8-naphthyridine]
21.1	Cc1c(-c2ccccn2)nc2cc(F)cc(F)c2c1N1CC2(CCOCC2)c2ccc(N3CCOCC3)cc21 [1-(5,7-difluoro-3-methyl-2-(2-pyridinyl)-4-quinolinyl)-6-(4-morpholinyl)-1,2,2′,3′,5′,6′-hexahydrospiro[indole-3,4′-pyran]]
9530	Cc1nc2ccc(Cl)cc2c(N2CC(C)(C)c3ccc(-c4cn[nH]c4)cc32)c1C [6-chloro-4-(3,3-dimethyl-6-(1H-pyrazol-4-yl)-2,3-dihydro-1H-indol-1-yl)-2,3-dimethylquinoline]
2.3	Cc1c(N2CCC2=O)nc2cc(F)cc(F)c2c1N1CC2(CCOCC2)c2ncc(N3CCOCC3)cc21 [1-(5,7-difluoro-3-methyl-4-(6′-(4-morpholinyl)-2,3,5,6-tetrahydrospiro[pyran-4,3′-pyrrolo[3,2-b]pyridin]-1′(2′H)-yl)-2-quinolinyl)-2-azetidinone]
156	Cc1c(-c2ccccn2)nc2cccc(F)c2c1N1CC(C)(C)c2ccc(N3CCOCC3)cc21 [4-(3,3-dimethyl-6-(4-morpholinyl)-2,3-dihydro-1H-indol-1-yl)-5-fluoro-3-methyl-2-(2-pyridinyl)quinoline]
33.3	Cc1c(-c2ccccn2)nc2cc(F)ccc2c1N1CC(C)(C)c2nc(Br)c(N3CCOCC3)cc21 [4-(5-bromo-3,3-dimethyl-6-(4-morpholinyl)-2,3-dihydro-1H-pyrrolo[3,2-b]pyridin-1-yl)-7-fluoro-3-methyl-2-(2-pyridinyl)quinoline]
197	Cc1c(-c2ccccc2F)nc2cc(F)ccc2c1N1CC(C)(C)c2ccc(N3CCOCC3)cc21 [4-(3,3-dimethyl-6-(4-morpholinyl)-2,3-dihydro-1H-indol-1-yl)-7-fluoro-2-(2-fluorophenyl)-3-methylquinoline]
2.9	C=C(c1ccccc1)c1nc2cc(F)cc(F)c2c(N2CC(C)(C)c3ncc(N4CCOCC4)cc32)c1C [4-(3,3-dimethyl-6-(4-morpholinyl)-2,3-dihydro-1H-pyrrolo[3,2-b]pyridin-1-yl)-5,7-difluoro-3-methyl-2-(1-phenylethenyl)quinoline]
2.68	Cc1nc2c(Cl)cccc2c(N2CC3(CCOCC3)c3ncc(N4CCOCC4)cc32)c1C [1′-(8-chloro-2,3-dimethyl-4-quinolinyl)-6′-(4-morpholinyl)-1′,2,2′,3,5,6-hexahydrospiro[pyran-4,3′-pyrrolo[3,2-b]pyridine]]
618	Cc1nc2c(C)cc(Cl)cc2c(N2CC(C)(C)c3ccc(N4CCOCC4)cc32)c1C [6-chloro-4-(3,3-dimethyl-6-(4-morpholinyl)-2,3-dihydro-1H-indol-1-yl)-2,3,8-trimethylquinoline]
15.6	Cc1cc(C)cc(-c2nc3cc(F)ccc3c(N3CC(C)(C)c4ncc(N5CCOCC5)cc43)c2C)c1 [4-(3,3-dimethyl-6-(4-morpholinyl)-2,3-dihydro-1H-pyrrolo[3,2-b]pyridin-1-yl)-2-(3,5-dimethylphenyl)-7-fluoro-3-methylquinoline]
85.4	Cc1c(-c2ccccc2)nc2ccccc2c1N1CC(C)(C)c2ccc(N3CCOCC3)cc21 [4-(3,3-dimethyl-6-(4-morpholinyl)-2,3-dihydro-1H-indol-1-yl)-3-methyl-2-phenylquinoline]
4.64	Cc1c(-n2ccccc2=O)nc2cc(F)cc(F)c2c1N1CC2(CCOCC2)c2ccc(N3CCOCC3)cc21 [1-(5,7-difluoro-3-methyl-4-(6-(4-morpholinyl)-2′,3′,5′,6′-tetrahydrospiro[indole-3,4′-pyran]-1(2H)-yl)-2-quinolinyl)-2(1H)-pyridinone]
5.87	CC(C)c1c(-c2ccccn2)nc2cc(F)ccc2c1N1CC(C)(C)c2ncc(N3CCOCC3)cc21 [4-(3,3-dimethyl-6-(4-morpholinyl)-2,3-dihydro-1H-pyrrolo[3,2-b]pyridin-1-yl)-7-fluoro-3-(1-methylethyl)-2-(2-pyridinyl)quinoline]

Ki [nM]	SMILES
23.5	Cc1c(-c2ccccc2F)nc2cccc(F)c2c1N1CCS(=O)(=O)c2ccc(N3CCOCC3)cc21 [4-(5-fluoro-2-(2-fluorophenyl)-3-methyl-4-quinolinyl)-6-(4-morpholinyl)-3,4-dihydro-2H-1,4-benzothiazine 1,1-dioxide]
153	Cc1nc2ccc(Cl)cc2c(-n2ccc3c(C#N)cc(N4CCOCC4)cc32)c1C [1-(6-chloro-2,3-dimethyl-4-quinolinyl)-6-(4-morpholinyl)-1H-indole-4-carbonitrile]
5.21	Cc1c(-c2cncc(F)c2)nc2cc(F)cc(F)c2c1N1CC(C)(C)c2ncc(N3CCOCC3)cc21 [4-(3,3-dimethyl-6-(4-morpholinyl)-2,3-dihydro-1H-pyrrolo[3,2-b]pyridin-1-yl)-5,7-difluoro-2-(5-fluoro-3-pyridinyl)-3-methylquinoline]
88.3	Cc1c(/C=C/c2ccccc2)nc2cc(F)cc(F)c2c1N1CC(C)(C)c2ncc(N3CCOCC3)cc21 [4-(3,3-dimethyl-6-(4-morpholinyl)-2,3-dihydro-1H-pyrrolo[3,2-b]pyridin-1-yl)-5,7-difluoro-3-methyl-2-((E)-2-phenylethenyl)quinoline]
93.7	Cc1c(-c2ccccn2)nc2c(F)cccc2c1N1CC(C)(C)c2ccc(N3CCOCC3)cc21 [4-(3,3-dimethyl-6-(4-morpholinyl)-2,3-dihydro-1H-indol-1-yl)-8-fluoro-3-methyl-2-(2-pyridinyl)quinoline]
4.07	Cc1c(-c2ccccn2)nc2c(C)ccc(F)c2c1N1CC(C)(C)c2ncc(N3CCOCC3)cc21 [4-(3,3-dimethyl-6-(4-morpholinyl)-2,3-dihydro-1H-pyrrolo[3,2-b]pyridin-1-yl)-5-fluoro-3,8-dimethyl-2-(2-pyridinyl)quinoline]
65.9	Cc1c(-c2ccccn2)nc2ncccc2c1N1CC2(CCOCC2)c2ncc(N3CCOCC3)cc21 [1′-(3-methyl-2-(2-pyridinyl)-1,8-naphthyridin-4-yl)-6′-(4-morpholinyl)-1′,2,2′,3,5,6-hexahydrospiro[pyran-4,3′-pyrrolo[3,2-b]pyridine]]
450	Cc1nc2ccccc2c(N2CC3(CCOCC3)c3ccc(N4CCOCC4)cc32)c1C [1-(2,3-dimethyl-4-quinolinyl)-6-(4-morpholinyl)-1,2,2′,3′,5′,6′-hexahydrospiro[indole-3,4′-pyran]]
3180	Cc1cc(Cl)c2nc(C)c(C)c(N3CC(C)(C)c4ccc(N5CCOCC5)cc43)c2c1 [8-chloro-4-(3,3-dimethyl-6-(4-morpholinyl)-2,3-dihydro-1H-indol-1-yl)-2,3,6-trimethylquinoline]
49.5	Cc1c(-c2ccccn2)nc2cc(F)ccc2c1N1CC(C)(C)c2nc(C#N)c(N3CCOCC3)cc21 [1-(7-fluoro-3-methyl-2-(2-pyridinyl)-4-quinolinyl)-3,3-dimethyl-6-(4-morpholinyl)-2,3-dihydro-1H-pyrrolo[3,2-b]pyridine-5-carbonitrile]
230	Cc1c(-c2cccc3ccccc23)nc2cc(F)cc(F)c2c1N1CC(C)(C)c2ncc(N3CCOCC3)cc21 [4-(3,3-dimethyl-6-(4-morpholinyl)-2,3-dihydro-1H-pyrrolo[3,2-b]pyridin-1-yl)-5,7-difluoro-3-methyl-2-(1-naphthalenyl)quinoline]
21.8	Cc1c(C2(c3ccccc3)CC2)nc2cc(F)cc(F)c2c1N1CC(C)(C)c2ncc(N3CCOCC3)cc21 [4-(3,3-dimethyl-6-(4-morpholinyl)-2,3-dihydro-1H-pyrrolo[3,2-b]pyridin-1-yl)-5,7-difluoro-3-methyl-2-(1-phenylcyclopropyl)quinoline]
571	COc1cc2nc(C)c(C)c(N3CC4(CCOCC4)c4ccc(Br)cc43)c2cc1Cl [6-bromo-1-(6-chloro-7-methoxy-2,3-dimethyl-4-quinolinyl)-1,2,2′,3′,5′,6′-hexahydrospiro[indole-3,4′-pyran]]
570	Cc1c(-c2ccccc2F)nc2cc(Cl)ccc2c1N1CC2(CCOCC2)c2ccc(N3CCOCC3)cc21 [1-(7-chloro-2-(2-fluorophenyl)-3-methyl-4-quinolinyl)-6-(4-morpholinyl)-1,2,2′,3′,5′,6′-hexahydrospiro[indole-3,4′-pyran]]
2.77	Cc1c(-c2cccc3[nH]ccc23)nc2cc(F)cc(F)c2c1N1CC(C)(C)c2ncc(N3CCOCC3)cc21 [4-(3,3-dimethyl-6-(4-morpholinyl)-2,3-dihydro-1H-pyrrolo[3,2-b]pyridin-1-yl)-5,7-difluoro-2-(1H-indol-4-yl)-3-methylquinoline]
890	Cc1c(-c2ccccc2F)nc2cccc(Cl)c2c1N1CC(C)(C)c2ccc(N3CCOCC3)cc21 [5-chloro-4-(3,3-dimethyl-6-(4-morpholinyl)-2,3-dihydro-1H-indol-1-yl)-2-(2-fluorophenyl)-3-methylquinoline]
44	Cc1nc2c(C)cccc2c(N2CC(C)(C)c3ccc(N4CCOCC4)cc32)c1C [4-(3,3-dimethyl-6-(4-morpholinyl)-2,3-dihydro-1H-indol-1-yl)-2,3,8-trimethylquinoline]
